Assay [1] deals with Leishmania amazonensis. Nature of the assay: Antileishmanial activity against Leishmania amazonensis promastigotes assessed as reduction in parasite survival measured after 48 hrs by Neubauer counting chamber based analysis. The format is functional. Particulars: read-out: LD50 (the source's name).
Assay [2] concerns Trypanosoma cruzi. Nature of the assay: Antitrypanosomal activity against Trypanosoma cruzi Dm28c epimastigotes assessed as reduction in parasite viability incubated for 48 hrs by trypan blue staining based Neubauer counting chamber analysis. It counts as functional, organism-based.
Assay [3] has as its system Trypanosoma cruzi. Kind of assay: Antitrypanosomal activity against bloodstream Trypanosoma cruzi Y strain trypomastigote assessed as reduction in parasite viability incubated for 24 hrs by Neubauer chamber based analysis. The format is functional, organism-based.
The subject of assay [4] is Trypanosoma cruzi. Kind of assay: Antiparasitic activity against Trypanosoma cruzi DM28c epimastigotes harboring TcMCA3 assessed reduction in parasite viability incubated for 72 hrs by MTT assay. It counts as functional, organism-based.

Consider two compounds from ChEMBL document CHEMBL5214913, “Cysteine proteases as potential targets for anti-trypanosomatid drug discovery” (Bioorg Med Chem, 2021).

Where a SMILES comes first, the peptide text is derived from it. The star is where a group is joined. Cbz = O=C(OCc1ccccc1)*

For orientation: IC50 means the concentration needed to halve the response being measured. On to `CC(C)[C@H](NC(=O)OCc1ccccc1)C(=O)N[C@H](C=O)Cc1ccccc1` (Cbz-Val-Phe-aldehyde), for which the LC50 in assay [1] is 23.3 µM. Further, the IC50 came to 31.7 µM in assay [2] and 20.4 µM in assay [3].

`C=CCc1cccc(/C=N/NC(=O)CN2CCN(Cc3ccccc3)CC2)c1O` [PAC-1] had an IC50 in assay [4] of 14 µM.
